Test results published in US20240252472A1, “COMBINATIONS FOR TREATING CANCER” (Purdue Pharma L.P., priority 2023, published 2024).

Assays:
Format in all cases: cell-based, human
[1] = test system: MM cell lines (MM.1S, RPMI-8226, MOLP-8); assay: Daratumumab-mediated ADCC on pre-treated MM cells; details: pre-treatment 2.5 μM 48 hours, NK cells 1:1 + daratumumab 1 μg/mL, 4 hours, vs DMSO-pretreated
Method: ADCC, CDC and apoptosis via cross-linking To assess the effect of tinostamustine pre-treatment on cytotoxic mechanisms mediated by daratumumab, MM cell lines were first incubated in presence of tinostamustine (2.5 μM) or DMSO for 48 hours. Cells were then washed to remove tinostamustine or DMSO from the culture medium, and the corresponding cytotoxic assay (ADCC, CDC or apoptosis via cross-linking) was performed.
For the evaluation of ADCC, tinostamustine or DMSO pre-treated cells were cocultured with NK cells obtained from healthy donors in the presence of daratumumab (1 μg/ml) or the corresponding isotype control for 4 hours (ratio 1:1). Briefly, peripheral blood mononuclear cells (PBMCs) were isolated from healthy donor buffy coats by Lymphoprep density gradient centrifugation. […] In all three assays, the cytotoxic effect on MM cells was evaluated by flow cytometry with Annexin V/7AAD staining after treatment with daratumumab. […]
MM cells (MM1.S, RPMI-8226, MOLP-8 cells pre-treated with 0 or 2.5 μM EDO-S101 in accordance with the methods outlined above) were co-cultured with NK-cells (ratio 1:1), in the presence of daratumumab (1 μg/mL) or the corresponding isotype control, for 4 hours at 37° C. […] ADCC was then evaluated using flow cytometry in accordance with the methods outlined above, using the following panel: CD38me-FITC/AnnexinV-PE/7AAD/CD45-APC.

MM cells (MOLP-8) = assay: Daratumumab-mediated ADCP, macrophage/myeloma co-culture; details: MM cells pre-treated 2.5 μM 48 hours; macrophages 3:1, daratumumab 4 hours; vs not pre-treated
Method: Mononuclear cells were isolated from buffy coats from healthy donors using density gradient centrifugation with Ficoll and subsequently CD14+ monocytes were magnetically isolated in an autoMACS® Pro Separator. Monocytes were cultured for 7 days in the presence of GM-CSF (10 ng/mL) to induce differentiation to macrophages. For the evaluation of ADCP, myeloma cells were either untreated or pre-treated with 2.5 μM EDO-S101 for 48 hours. Cells were washed to remove EDO-S101 from the culture medium, and untreated and pre-treated myeloma cells were stained with PKH26. Co-cultures of macrophages and myeloma cells^PKH26+ (ratio 3:1) were incubated with different concentrations of daratumumab or the corresponding isotype control for 4 hours at 37° C. ADCP was evaluated by flow cytometry with the panel: CD11b-FITC/PKH26/CD138-APC. […]
ADCP was quantified as the percentage of double positive events using the following formula: […]
‘Treatment double positive cells’ refers to the proportion of macrophages (as a percentage) determined to have phacocytosed MM cells in co-cultures treated with daratumumab. ‘Control double positive cells’ refers to the proportion of macrophages (as a percentage) determined to have phacocytosed MM cells in co-cultures that were ED-S101 untreated or pre-treated but not treated with daratumumab.
Elimination of myeloma cells was calculated using the following formula: […]

CD38 = CD38 expression on primary myeloma cells from patients ex vivo, flow cytometry; details: 2.5 μM, 48 hours; 3 out of 11 patients (low basal expression); not observed with high basal CD38
Method: (§1) For surface staining, cells were incubated with the appropriate antibodies and 7AAD (Immunostep) for 15 min in the dark. Data were acquired using a FACSCalibur cytometer (BD Biosciences) and analyzed using Infinicyt™ software (Cytognos). Specifically, the expression of CD38 or ligands for NK cell activating receptors (MICA, MICB, ULBP1-3, PVR and CD112) in MM cell lines was determined on the viable cell population (7AAD-). In primary myeloma cells, the expression of CD38 was analyzed over the viable myeloma population using the panel CD138-FITC/CD56-PE/7AAD/CD38-APC, whereas MICA/B-AF488/CD56-PE/7AAD/CD38-APC panel was used to determine MICA/B expression. Normalized median fluorescence intensity (MFI) was calculated by dividing median fluorescence obtained with the specific antibody by median fluorescence of the corresponding isotype control. MFI for each treatment was expressed as a percentage relative to the control (100%, cells cultured in media with DMSO).
CD38 expression was further examined by flow cytometry in malignant plasma cells from ex vivo cultures of 11 MM patients' bone marrow samples treated with tinostamustine (2.5 μM) for 48 hours.

MICB = MICB expression on MM patients' plasma cells ex vivo; details: 3 out of 6 patients analyzed, 48 hours
Method: as §1

MICA [2] = assay: Surface expression of NK cell activating ligands by flow cytometry; details: 48 hours, DMSO = 100
Method: as §1
(§2) MM cells (JJN3, MM1.S, RPMI-8226, MOLP-8) were treated with EDO-S101 (1 and 2.5 μm) for 48 hours in accordance with the methods outlined above. After incubation, expression of several ligands for NK cell activating receptors: MICA, MICB, ULBP1, ULPB2, ULPB3, CD155 (PVR) and CD112 (Nectin-2) were measured using flow cytometry. Flow cytometry was then performed in accordance with the methods outlined above to calculate.

CD155 = assay: as above; details: 48 hours, DMSO = 100
Method: as §1, §2

MICA [3] = assay: MICA expression on MM patients' plasma cells ex vivo; details: 6 out of the 9 patients analyzed, 48 hours
Method: as §1

Cn1c(CCCCCCC(=O)NO)nc2cc(N(CCCl)CCCl)ccc21 [EDO-S101, 7-(5-(bis(2-chloroethyl)amino)-1-methyl-1H-benzo[d]imidazol-2-yl)-N-hydroxyheptanamide]
percentage of dead myeloma cells, daratumumab-mediated ADCC [1]: significantly enhanced
percentage of dead myeloma cells, daratumumab-mediated ADCC ([1]; listed as tinostamustine): higher
ADCP: percentage of double positive events (macrophages that have phagocytosed myeloma cells) (MM cells (MOLP-8)): increased
ADCP: percentage of eliminated MM cells (MM cells (MOLP-8)): decreased
CD38 expression in primary myeloma cells (CD38): slightly increased
increase of MICB expression after treatment, patient cells (MICB): more than 1.5 fold
Normalized MFI MICA (MICA [2]; JJN3, EDO-S101 1 μM): 162.9 ± 11.8%
Normalized MFI MICA (MICA [2]; JJN3, EDO-S101 2.5 μM): 168.8 ± 10.3%
Normalized MFI MICA (MICA [2]; MM1.S, EDO-S101 1 μM): 131.9 ± 37.6%
Normalized MFI MICA (MICA [2]; MM1.S, EDO-S101 2.5 μM): 128 ± 38.2%
Normalized MFI MICA (MICA [2]; MOLP-8, EDO-S101 1 μM): 112.9 ± 5.7%
Normalized MFI MICA (MICA [2]; MOLP-8, EDO-S101 2.5 μM): 131.7 ± 13.4%
Normalized MFI MICA (MICA [2]; RPMI-8226, EDO-S101 1 μM): 121.3 ± 5.9%
Normalized MFI MICA (MICA [2]; RPMI-8226, EDO-S101 2.5 μM): 153.6 ± 16.1%
Normalized MFI CD155 (CD155; JJN3, EDO-S101 1 μM): 161.4 ± 14.3%
Normalized MFI CD155 (CD155; JJN3, EDO-S101 2.5 μM): 156.8 ± 24.7%
Normalized MFI CD155 (CD155; MM1.S, EDO-S101 1 μM): 113.3 ± 3.9%
Normalized MFI CD155 (CD155; MM1.S, EDO-S101 2.5 μM): 111.5 ± 15.3%
Normalized MFI CD155 (CD155; RPMI-8226, EDO-S101 1 μM): 123.9 ± 6.1%
Normalized MFI CD155 (CD155; RPMI-8226, EDO-S101 2.5 μM): 168.2 ± 24.8%
expression of MICA in tinostamustine-treated vs DMSO-treated patient cells (MICA [3]): at least twice
